In ChEMBL document CHEMBL1201862, “PubChem BioAssay data set” (2004):
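Each compound was tested at five concentrations against cells in 96-well plates for 48 hours. GI50 is the concentration that inhibits growth by half.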 Calls of active or inactive are those of the source. No stated cut-off is given here; in the data, active = GI50 up to about 1.1 µM and inactive = higher.

Legend:
Assay in all cases: DTP human tumour cell line panel, 48 h
[1] = system: RXF 393
[2] = system: DU-145
[3] = system: SK-MEL-28
[4] = system: 786-0
[5] = system: RPMI-8226
[6] = system: SK-MEL-2
[7] = system: HL-60
[8] = system: CCRF-CEM
[9] = system: M14
[10] = system: HT-29
[11] = system: UACC-62
[12] = system: Hs-578T
[13] = system: CAKI-1
[14] = system: T47D
[15] = system: KM12
[16] = system: TK-10
[17] = system: SF-268
[18] = system: A549
[19] = system: MDA-N
[20] = system: ACHN
[21] = system: UACC-257
[22] = system: MOLT-4
[23] = system: SNB-75
[24] = system: SN12C
[25] = system: SR
[26] = system: NCI-H522
[27] = system: COLO 205
[28] = system: SK-OV-3
[29] = system: HCT-15
[30] = system: SW-620
[31] = system: UO-31
[32] = system: K562
[33] = system: NCI/ADR-RES
[34] = system: SNB-19
[35] = system: A498
[36] = system: MCF7
[37] = system: NCI-H460
[38] = system: Malme-3M
[39] = system: MDA-MB-435
[40] = system: HOP-92
[41] = system: OVCAR-5
[42] = system: SK-MEL-5
[43] = system: SF-539
[44] = system: NCI-H226
[45] = system: EKVX
[46] = system: MDA-MB-231
[47] = system: PC-3
[48] = system: SF-295
[49] = system: OVCAR-8
[50] = system: LOX IMVI
[51] = system: NCI-H23
[52] = system: OVCAR-3
[53] = system: HOP-62
[54] = system: HCT-116
[55] = system: HCC 2998
[56] = system: IGROV-1
[57] = system: OVCAR-4
[58] = system: U-251
[59] = system: BT-549

O=C(/C=C\c1ccc(Cl)cc1Cl)c1cccs1
GI50 [1]: 24 µM (inactive)
GI50 [2]: 21.3 µM (inactive)
GI50 [3]: 24.5 µM (inactive)
GI50 [4]: 17.5 µM (inactive)
GI50 [5]: 3.61 µM (inactive)
GI50 [6]: 18.9 µM (inactive)
GI50 [7]: 37.2 µM (inactive)
GI50 [8]: 21.3 µM (inactive)
GI50 [9]: 18.8 µM (inactive)
GI50 [10]: 23.4 µM (inactive)
GI50 [11]: 14.7 µM (inactive)
GI50 [12]: 24.8 µM (inactive)
GI50 [13]: 24.2 µM (inactive)
GI50 [14]: 21.9 µM (inactive)
GI50 [15]: 16.3 µM (inactive)
GI50 [16]: 24.5 µM (inactive)
GI50 [17]: 23.4 µM (inactive)
GI50 [18]: 24.9 µM (inactive)
GI50 [19]: 16.6 µM (inactive)
GI50 [20]: 14.7 µM (inactive)
GI50 [21]: 19.5 µM (inactive)
GI50 [22]: 30.2 µM (inactive)
GI50 [23]: 25.2 µM (inactive)
GI50 [24]: 17.4 µM (inactive)
GI50 [25]: 5.61 µM (inactive)
GI50 [26]: 21.2 µM (inactive)
GI50 [27]: 16.5 µM (inactive)
GI50 [28]: 26.1 µM (inactive)
GI50 [29]: 14.4 µM
GI50 [30]: 12.5 µM (inactive)
GI50 [31]: 11.9 µM (inactive)
GI50 [32]: 21.1 µM (inactive)
GI50 [33]: 30.4 µM (inactive)
GI50 [34]: 17 µM (inactive)
GI50 [35]: 19.7 µM (inactive)
GI50 [36]: 6.89 µM (inactive)
GI50 [37]: 23.9 µM (inactive)
GI50 [38]: 21.4 µM (inactive)
GI50 [39]: 16.6 µM (inactive)
GI50 [40]: 26.4 µM (inactive)
GI50 [41]: 20 µM (inactive)
GI50 [42]: 16.3 µM (inactive)
GI50 [43]: 19.8 µM (inactive)
GI50 [44]: 20.7 µM (inactive)
GI50 [45]: 16.9 µM (inactive)
GI50 [46]: 16.7 µM (inactive)
GI50 [47]: 16.4 µM (inactive)
GI50 [48]: 18.3 µM (inactive)
GI50 [49]: 12 µM (inactive)
GI50 [50]: > 10 µM (inactive)
GI50 [51]: 19.2 µM (inactive)
GI50 [52]: 28.4 µM (inactive)
GI50 [53]: 24.3 µM (inactive)
GI50 [54]: 9.57 µM (inactive)

CC1=Nc2nc(Cl)cn2C(=O)C1(Cl)Cl
GI50 [1]: > 10 µM (inactive)
GI50 [2]: > 10 µM (inactive)
GI50 [3]: > 10 µM (inactive)
GI50 [5]: > 10 µM (inactive)
GI50 [6]: > 10 µM (inactive)
GI50 [55]: > 10 µM (inactive)
GI50 [7]: > 10 µM (inactive)
GI50 [8]: > 10 µM (inactive)
GI50 [9]: > 10 µM (inactive)
GI50 [56]: > 10 µM (inactive)
GI50 [10]: > 10 µM (inactive)
GI50 [11]: > 10 µM (inactive)
GI50 [12]: > 10 µM (inactive)
GI50 [13]: > 10 µM (inactive)
GI50 [14]: > 10 µM (inactive)
GI50 [15]: > 10 µM (inactive)
GI50 [16]: > 10 µM (inactive)
GI50 [17]: > 10 µM (inactive)
GI50 [18]: > 10 µM (inactive)
GI50 [19]: > 10 µM (inactive)
GI50 [20]: > 10 µM (inactive)
GI50 [22]: > 10 µM (inactive)
GI50 [23]: > 10 µM (inactive)
GI50 [57]: > 10 µM (inactive)
GI50 [24]: > 10 µM (inactive)
GI50 [25]: > 10 µM (inactive)
GI50 [26]: > 10 µM (inactive)
GI50 [27]: > 10 µM (inactive)
GI50 [28]: > 10 µM (inactive)
GI50 [29]: > 10 µM
GI50 [30]: > 10 µM (inactive)
GI50 [31]: > 10 µM (inactive)
GI50 [58]: > 10 µM (inactive)
GI50 [32]: > 10 µM (inactive)
GI50 [33]: > 10 µM (inactive)
GI50 [34]: > 10 µM (inactive)
GI50 [35]: > 10 µM (inactive)
GI50 [36]: > 10 µM (inactive)
GI50 [37]: > 10 µM (inactive)
GI50 [38]: > 10 µM (inactive)
GI50 [39]: > 10 µM (inactive)
GI50 [41]: > 10 µM (inactive)
GI50 [42]: > 10 µM (inactive)
GI50 [43]: > 10 µM (inactive)
GI50 [44]: > 10 µM (inactive)
GI50 [45]: > 10 µM (inactive)
GI50 [46]: > 10 µM (inactive)
GI50 [47]: > 10 µM (inactive)
GI50 [48]: > 10 µM (inactive)
GI50 [49]: > 10 µM (inactive)
GI50 [50]: > 10 µM (inactive)
GI50 [51]: > 10 µM (inactive)
GI50 [52]: > 10 µM (inactive)
GI50 [53]: > 10 µM (inactive)
GI50 [54]: > 10 µM (inactive)

Oc1nc(S)nc2nc3c4cccnc4c4ccccc4c3nc12
GI50 [1]: 49.8 µM (inactive)
GI50 [2]: > 100 µM (inactive)
GI50 [3]: 77.1 µM (inactive)
GI50 [4]: > 100 µM (inactive)
GI50 [5]: 45.8 µM (inactive)
GI50 [55]: > 100 µM (inactive)
GI50 [7]: 30.9 µM (inactive)
GI50 [8]: 74.6 µM (inactive)
GI50 [9]: > 100 µM (inactive)
GI50 [56]: > 100 µM (inactive)
GI50 [10]: > 100 µM (inactive)
GI50 [11]: > 100 µM (inactive)
GI50 [12]: > 100 µM (inactive)
GI50 [13]: > 100 µM (inactive)
GI50 [15]: 79.8 µM (inactive)
GI50 [16]: > 100 µM (inactive)
GI50 [59]: > 100 µM (inactive)
GI50 [17]: > 100 µM (inactive)
GI50 [18]: > 100 µM (inactive)
GI50 [19]: > 100 µM (inactive)
GI50 [20]: > 100 µM (inactive)
GI50 [21]: > 100 µM (inactive)
GI50 [22]: > 100 µM (inactive)
GI50 [23]: 48.4 µM (inactive)
GI50 [57]: > 100 µM (inactive)
GI50 [24]: > 100 µM (inactive)
GI50 [25]: 50.4 µM (inactive)
GI50 [26]: 86.3 µM (inactive)
GI50 [27]: > 100 µM (inactive)
GI50 [28]: > 100 µM (inactive)
GI50 [29]: > 100 µM
GI50 [30]: > 100 µM (inactive)
GI50 [31]: > 100 µM (inactive)
GI50 [58]: > 100 µM (inactive)
GI50 [34]: > 100 µM (inactive)
GI50 [35]: > 100 µM (inactive)
GI50 [36]: 88.3 µM (inactive)
GI50 [37]: 57.3 µM (inactive)
GI50 [38]: > 100 µM (inactive)
GI50 [39]: > 100 µM (inactive)
GI50 [40]: > 100 µM (inactive)
GI50 [41]: > 100 µM (inactive)
GI50 [42]: > 100 µM (inactive)
GI50 [43]: > 100 µM (inactive)
GI50 [45]: > 100 µM (inactive)
GI50 [47]: > 100 µM (inactive)
GI50 [48]: > 100 µM (inactive)
GI50 [49]: > 100 µM (inactive)
GI50 [51]: > 100 µM (inactive)
GI50 [52]: > 100 µM (inactive)
GI50 [53]: 52.7 µM (inactive)
GI50 [54]: > 100 µM (inactive)

O=C1C(F)=CC(COC(c2ccccc2)(c2ccccc2)c2ccccc2)OC1n1cc(F)c(=O)[nH]c1=O (configuration not stated)
GI50 [1]: 1.96 µM (inactive)
GI50 [3]: 1.62 µM (inactive)
GI50 [4]: 1.97 µM (inactive)
GI50 [5]: 0.413 µM (active)
GI50 [6]: 2.91 µM (inactive)
GI50 [55]: 3.54 µM (inactive)
GI50 [7]: 0.592 µM (active)
GI50 [8]: 0.319 µM (active)
GI50 [9]: 1.83 µM (inactive)
GI50 [56]: 1.46 µM (inactive)
GI50 [10]: 0.412 µM (active)
GI50 [11]: 1.61 µM (inactive)
GI50 [12]: 4.24 µM (inactive)
GI50 [13]: 2.49 µM (inactive)
GI50 [15]: 1.91 µM (inactive)
GI50 [16]: 1.34 µM (inactive)
GI50 [59]: 1.71 µM (inactive)
GI50 [17]: 2.9 µM (inactive)
GI50 [18]: 2.18 µM (inactive)
GI50 [19]: 1.11 µM (active)
GI50 [20]: 1.64 µM (inactive)
GI50 [21]: 1.96 µM (inactive)
GI50 [22]: 0.8 µM (active)
GI50 [23]: 2.58 µM (inactive)
GI50 [57]: 3.99 µM (inactive)
GI50 [24]: 1.75 µM (inactive)
GI50 [25]: 6.18 µM (inactive)
GI50 [26]: 1.61 µM (inactive)
GI50 [28]: 7.05 µM (inactive)
GI50 [29]: 1.67 µM
GI50 [30]: 0.723 µM (active)
GI50 [31]: 2.2 µM (inactive)
GI50 [58]: 1.36 µM (inactive)
GI50 [32]: 0.278 µM (active)
GI50 [33]: 2.04 µM (inactive)
GI50 [34]: 5.09 µM (inactive)
GI50 [35]: 8.79 µM (inactive)
GI50 [36]: 2.07 µM (inactive)
GI50 [37]: 2.62 µM (inactive)
GI50 [38]: 3.33 µM (inactive)
GI50 [39]: 0.746 µM (active)
GI50 [40]: 2.11 µM (inactive)
GI50 [41]: 2.14 µM (inactive)
GI50 [42]: 1.35 µM (inactive)
GI50 [43]: 1.94 µM (inactive)
GI50 [44]: 1.83 µM (inactive)
GI50 [45]: 7.89 µM (inactive)
GI50 [46]: 3.26 µM (inactive)
GI50 [47]: 1.71 µM (inactive)
GI50 [48]: 2.2 µM (inactive)
GI50 [49]: 1.87 µM (inactive)
GI50 [50]: 0.533 µM (active)
GI50 [51]: 1.77 µM (inactive)
GI50 [52]: 1.48 µM (inactive)
GI50 [53]: 3.18 µM (inactive)
GI50 [54]: 2.77 µM (inactive)
